From ChEMBL document CHEMBL3864152, “Discovery of ursolic acid prodrug (NX-201): Pharmacokinetics and in vivo antitumor effects in PANC-1 pancreatic cancer” (Bioorg Med Chem Lett, 2016) come the findings set out here.

The source made the active and inactive calls. No cut-off for these calls is given here. Where only a bound is given, the exact number is not on record here.

For data set [1], the system named is Mus musculus. The data set can be described thus: Toxicity in non-obese diabetic […] SCID mouse xenografted with human PANC1 cells assessed as change in body weight at 25 to 100 mg/kg, po administered daily for 4 weeks. The class given is organism-based, PANC-1. Conditions: in vivo, 672 h. A general note: A xenograft is tissue or cells of one species grown in another, often human tumour cells in immunodeficient mice.

The nature of data set [2]: Tmax in rat at 25 mg/kg, po. The format is ADME, organism-based. As to conditions: in vivo.
Data set [3] can be described thus: Oral bioavailability in rat at 25 mg/kg. The format is ADME, organism-based. Conditions: in vivo.
In data set [4] the test system is PANC-1. In words: Antitumor activity against human PANC1 cells xenografted in po dosed non-obese diabetic […] SCID mouse assessed as tumor growth inhibition administered daily for 4 weeks. The format is functional, organism-based.
The nature of data set [5]: Half life in rat at 25 mg/kg, po. The class given is ADME, organism-based. As to conditions: in vivo.
For data set [6], the system named is PANC-1. The data set can be described thus: Antitumor activity against human PANC1 cells xenografted in non-obese diabetic […] SCID mouse assessed as tumor growth inhibition at 50 mg/kg, po administered daily measured after 3 weeks in presence of gemcitabine. The format is functional, organism-based.
Data set [7] concerns Mus musculus. In words: Toxicity in non-obese diabetic […] SCID mouse xenografted with human PANC1 cells assessed as change in body weight at 50 mg/kg, po administered daily for 4 weeks in presence of gemcitabine. The format is organism-based, PANC-1. Conditions: in vivo, 672 h.
Data set [8] in a line: AUC in rat at 25 mg/kg, po. The class given is ADME, organism-based. Conditions: in vivo.
Data set [9] is described as follows: Cmax in rat at 25 mg/kg, po. The format is ADME, organism-based. Also on record: dose 25 mg/kg, route oral. Conditions: in vivo.
Data set [10] deals with Mus musculus. In words: Toxicity in non-obese diabetic […] SCID mouse xenografted with human PANC1 cells assessed as change in body weight at 40 mg/kg, iv administered 2 times per week for 4 weeks. Conditions: in vivo, 672 h. The format is organism-based, PANC-1.
The subject of data set [11] is PANC-1. The data set can be described thus: Antitumor activity against human PANC1 cells xenografted in non-obese diabetic […] SCID mouse assessed as tumor growth inhibition at 40 mg/kg, iv administered 2 times per week for 4 weeks. The class given is functional, organism-based.
Data set [12] can be described thus: Oral bioavailability in Sprague-Dawley rat at 25 mg/kg. Conditions: in vivo. The class given is ADME, organism-based.
Data set [13] can be described thus: Dissociation constant, pKa of the compound. The class given is physicochemical.
Another data set in a line: in vivo. As to conditions: rat, iv, 0.5 mg/kg.
Data set [14] in a line: AUC in rat at 0.5 mg/kg, iv. As to conditions: in vivo. The format is ADME, organism-based.
Data set [15] is described as follows: Half life in rat at 0.5 mg/kg, iv. As to conditions: in vivo. The class given is ADME, organism-based.
The subject of data set [16] is Mus musculus. The data set can be described thus: Toxicity in non-obese diabetic […] SCID mouse xenografted with human PANC1 cells assessed as change in body weight at 50 mg/kg, po administered daily for 4 weeks. The class given is organism-based, PANC-1. Conditions: in vivo, 672 h.
Data set [17] is described as follows: Tmax in rat at 0.5 mg/kg, iv. The class given is ADME, organism-based. Conditions: in vivo.

Description for in vivo: Cmax in rat at 0.5 mg/kg, iv

With `Cc1oc(=O)oc1COC(=O)[C@]12CC[C@@H](C)[C@H](C)[C@H]1C1=CC[C@@H]3[C@@]4(C)CC[C@H](O)C(C)(C)[C@@H]4CC[C@@]3(C)[C@]1(C)CC2`, the Activity result in the data set with Mus musculus [1] and in the data set with Mus musculus [7] was “Non-Toxic” each time. Also, the Tmax (in general, the time at which the peak concentration occurs) in data set [2] is 87.6 min. The bioavailability (commonly the share of a dose that reaches the circulation, judged against a reference dose that is usually intravenous) in [3] was determined as 2.3%. Besides, the TGI entry with PANC-1 [4] is “Dose-dependent effect”. Moreover, the half-life (commonly how long it takes for the measured level to halve) in [5] is 283 min. Besides, the TGI entry in the data set on PANC-1 [6] was “Active”. In addition, the AUC (as a rule, the area under the concentration-time curve, a measure of exposure) in data set [8] is 132 ng·h/mL. Moreover, the Cmax (as a rule, the peak of the concentration-time curve) in data set [9] is 30.3 ng/mL.
Consider `Nc1ccn([C@@H]2O[C@H](CO)[C@@H](O)C2(F)F)c(=O)n1` [GEMCITABINE], for which, in the data set with Mus musculus [10], the Activity entry is on record as “Non-Toxic”. Besides, in the data set on PANC-1 [11], the TGI result is “Active”.
Take `CC1(C)CC[C@]2(C(=O)O)CC[C@]3(C)C(=CC[C@@H]4[C@@]5(C)CC[C@H](O)C(C)(C)[C@@H]5CC[C@]43C)[C@@H]2C1` [OLEANOLIC_ACID]: in data set [12], the bioavailability turned out to be 0.7%.
Regarding `C[C@H]1[C@H](C)CC[C@]2(C(=O)O)CC[C@]3(C)C(=CC[C@@H]4[C@@]5(C)CC[C@H](O)C(C)(C)[C@@H]5CC[C@]43C)[C@H]12` [URSOLIC ACID], the Tmax in [2] is 15 min; in data set [17], 4.8 min. For the same molecule, in [13], the pKa (in general, the pH at which an ionisable group is half protonated) amounted to 5.29. Also, the figures for the Cmax (in “in vivo”; in [9]) were 378 ng/mL and 1.9 ng/mL, respectively. This molecule showed a bioavailability in data set [3] of under 0.01%. Besides, the AUC in data set [14] worked out at 114 ng·h/mL; in data set [8], 0.6 ng·h/mL. Moreover, the half-life in data set [5] was 18 min; in data set [15] it was 93 min. For the same molecule, in the data set with Mus musculus [16], the Activity result is on record as “Non-Toxic”.
